“Also recorded” adds a separate entry of the source. One block for each substance: values may come before it.
How the values were obtained:
[1] = target: anti-thrombin III (Homo sapiens, UniProt P01008); assay: affinity for anti-thrombin III; format: binding; conditions: for Kd: measured as described in Rao et al.; for Kd for anti-thrombin III: same Kd as mass concentration
[2] = comparator heparin; Rao et al.; cited from earlier work
[3] = target: T1, Xa (Homo sapiens, UniProt P00742); conditions: comparator heparin; Rao et al.; cited from earlier work
T1 construct: an assay carried out using plasma treated with Russell viper venom; from tissue; host or cells: plasma

[4] = target: IIa (Homo sapiens, UniProt P00734+P01008); conditions: comparator heparin; Rao et al.; cited from earlier work
[5] = system: pancreatic cancer model; conditions: in vivo; cited from earlier work
[6] = clotting time in an aPTT assay after administration to a subject; format: in vivo; conditions: ODSH at a dose equivalent in weight to a fully-anticoagulating dose of unfractionated heparin; UFH at fully anticoagulant dose; normal about 27 to 35 seconds
Text: In contrast to unfractionated heparin, ODSH is substantially non-anticoagulating: administered to a subject at a dose that is equivalent in weight to a fully-anticoagulating dose of unfractionated heparin, the clotting time measured in an aPTT assay is no greater than 45 seconds, and typically in the upper range of normal, where normal clotting time ranges from about 27 to 35 seconds. By comparison, unfractionated heparin administered to a subject at a fully anticoagulant dose causes time to clot to range from about 60 to about 85 seconds in an aPTT assay.

[7] = system: acute myeloid leukemia (AML); assay: single arm open-label clinical study of ODSH with idarubicin + cytarabine induction (NCT02056782); format: in vivo, human
Method: A single arm open-label clinical study was conducted at multiple trial sites (University of Utah, Georgia Regents University, and Medical University of South Carolina) in patients with newly diagnosed acute myeloid leukemia (AML) to confirm that ODSH could accelerate platelet and white blood cell (WBC) recovery in patients receiving induction chemotherapy with a regimen known to have myelosuppressive side effects.
All patients received the following standard (“7+3”) induction regimen, • Idarubicin (12 mg/m^2/day) by short intravenous infusion on Days 1, 2, and 3; and • Cytarabine (100 mg/m^2) as a continuous intravenous infusion over 24 hours (Days 1 through 7).
All patients also received CX-01, a substantially 2-O, 3-O-desulfated heparin derivative (ODSH) as an intravenous bolus immediately after the idarubicin dose on Day 1, at a dose of 4 mg/kg, followed by a continuous intravenous infusion at a dose of 0.25 mg/kg/hr for a total of 7 days (Days 1 through 7).
Twelve patients were enrolled. The median age was 56 (range 22-74). Based on cytogenetic, molecular, or antecedent hematologic disorder, 9 of 12 patients fell into the intermediate or poor risk categories. […] Complete remission at the end of the induction cycle was assessed using International Working Group (IWG) criteria (see, e.g., Cheson et al., J. Clin. Oncol. 21:4642 (2003)).
Platelet, neutrophil, and WBC recovery of the ODSH-treated AML patients was compared with the recovery in historical control patients receiving identical doses of idarubicin and cytarabine as induction therapy in a previous clinical study comparing idarubicin and daunorubicin in combination with cytarabine (Vogler et al., J. Clin. Oncol. 10(7):1103-11(1992)). In the previous study, 101 patients received idarubicin 12 mg/m^2 on days 1, 2, and 3 and cytarabine 100 mg/m^2 on days 1-7. Growth factors were not administered to any patient.

[8] = system: bone marrow; assay: serial bone marrow biopsies in the AML trial; format: in vivo, human; conditions: one patient treated with ODSH, cytarabine and idarubicin; for bone marrow biopsy appearance at Day 14 of the induction cycle: FIG. 2B; for bone marrow biopsy appearance at Day 28: FIG. 2C
Text: Bone marrow biopsies were obtained in the AML, trial described in Example 1.
FIGS. 2A-2C are photomicrographs of biopsies from one of the patients.

[9] = stability testing of CX-01 infusion solutions; format: physicochemical; conditions: room temperature; diluted in 0.9% sodium chloride
Method: Based upon current stability testing data, CX-01 infusion solutions expire at room temperature 72 hours after preparation and should be stored in a refrigerator (2 to 8° C.) until used.

[10] = system: metastatic adenocarcinoma of the pancreas; conditions: cited from earlier work
[11] = system: human pancreatic cancer; conditions: regimen that includes gemcitabine; cited from earlier work
[12] = system: advanced prostate, lung, or pancreatic cancer; conditions: added to existing standard of care protocols; cited from earlier work
[13] = system: advanced pancreatic cancer; conditions: dalteparin added to gemcitabine; cited from earlier work
[14] = system: ovarian cancer; conditions: with standard chemotherapy regimen; cited from earlier work
[15] = median follow-up of 14.2 months
[16] = ODSH added to gemcitabine plus nab-paclitaxel

Sequence of anti-thrombin III (P01008 33-464, species assumed): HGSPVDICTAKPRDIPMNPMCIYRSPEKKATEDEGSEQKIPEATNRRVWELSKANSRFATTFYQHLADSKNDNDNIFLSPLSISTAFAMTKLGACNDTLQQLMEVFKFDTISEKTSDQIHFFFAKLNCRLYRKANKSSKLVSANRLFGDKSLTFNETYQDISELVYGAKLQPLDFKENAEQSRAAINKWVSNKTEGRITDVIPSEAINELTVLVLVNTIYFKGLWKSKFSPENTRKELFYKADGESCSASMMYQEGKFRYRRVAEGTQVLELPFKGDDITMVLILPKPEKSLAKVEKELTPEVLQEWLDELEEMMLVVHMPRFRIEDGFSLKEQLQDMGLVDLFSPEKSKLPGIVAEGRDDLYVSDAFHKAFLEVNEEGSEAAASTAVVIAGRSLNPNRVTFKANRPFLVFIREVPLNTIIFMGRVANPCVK
T1 sequence (P01008 33-464 partner): as the sequence (P01008 33-464, species assumed) above
T1 sequence (P00742 235-488 limits assumed): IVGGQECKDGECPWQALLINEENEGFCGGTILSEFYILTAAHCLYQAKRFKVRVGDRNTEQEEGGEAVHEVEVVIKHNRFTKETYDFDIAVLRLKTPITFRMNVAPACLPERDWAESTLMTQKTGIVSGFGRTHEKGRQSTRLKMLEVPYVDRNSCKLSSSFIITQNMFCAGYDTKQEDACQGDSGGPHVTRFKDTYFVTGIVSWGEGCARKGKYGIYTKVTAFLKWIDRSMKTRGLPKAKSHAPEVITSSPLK

Substance: unfractionated heparin
Kd [1]: 1.56 µM
Kd for anti-thrombin III [1]: 22 µg/mL
anticoagulant activity in the USP anticoagulant assay [2]: 165-190 U/mg
anti-Xa activity [3]: 165-190 U/mg
anti-IIa activity [4]: 165-190 U/mg
potency of gemcitabine [5]: enhances potency of gemcitabine

Kd [1]: ~339 µM
Kd for anti-thrombin III [1]: ~4000 µg/mL
expiry of infusion solutions after preparation [9]: 72 h
Substance: substantially 2-O, 3-O desulfated heparin [ODSH]
clotting time measured in an aPTT assay [6]: ≤ 45 s
patients remaining in complete remission ([7]; 5-13 months after having been enrolled in the study): 10 of the 12
patients with primary AML achieving complete remission at the end of a single induction cycle ([7]; 11 patients with primary AML): 11
myelosuppressive side effects of the idarubicin+cytarabine regimen ([7]; AML patients): significantly attenuated the myelosuppressive side effects
Complete response with first induction cycle (morphologic complete remission, IWG criteria) ([7]; AML patients, n = 12, 11 out of 12): 92%
median OS [7, 15]: ≥ 13.6 months
median event free survival [7, 15]: 13.5 months
median time to relapse ([7]; six patients who relapsed): 8 months
bone marrow biopsy appearance at Day 14 of the induction cycle [8]: elimination of most normal bone marrow cells as well as leukemia cells
bone marrow biopsy appearance at Day 14 of the induction cycle ([8]; listed as CX-01 ODSH): significant depletion of normal bone marrow cells
bone marrow biopsy appearance at Day 28 [8]: no evidence of leukemic cells and restoration of normal bone marrow appearance and function
bone marrow biopsy appearance at Day 28 ([8]; listed as CX-01 ODSH): no evidence of leukemia and restoration of normal bone marrow appearance and function
overall survival [10, 16]: did not provide a statistically significant increase; also recorded: no statistically significant benefit
progression-free survival [10, 16]: did not provide a statistically significant increase; also recorded: no statistically significant benefit
myelosuppressive side effects of the gemcitabine plus nab-paclitaxel regimen ([10]; U.S. Pat. No. 8,734,804): attenuate the myelosuppressive side effects
efficacy of chemotherapy regimen in animal model [11]: improves the efficacy of a chemotherapy regimen; also recorded: sensitize cancer cells to chemotherapy

Substance: nadroparin
survival benefit [12]: no statistically significant survival benefit

Substance: dalteparin
survival [13]: no statistically significant improvement in survival
outcome [14]: could not be shown to improve outcome
